Values of other authors as cited in patent US10828268B2 (priority 2013, dated 2020).

Details: human, taken orally

Q: For `COc1cc(/C=C/C(=O)CC(=O)/C=C/c2ccc(O)c(OC)c2)ccc1O` [curcumin], which oral bioavailability is on record?
A: poorly bioavailable
